SMILES strings stand for the structures. Where two headings read alike, the source gives them in different places.

Series [1] concerns the target T1, KRAS G12C::SOS1 protein-protein interaction (Homo sapiens, UniProt P01116, C118S/C51S/C80L/G12C).
T1 construct: His6 (N); host or cells: E. coli
Briefly: KRAS::SOS1 AlphaScreen binding assay. Conditions: KRAS G12C::SOS1 AlphaScreen. The source says: KRAS::SOS1 AlphaScreen Binding Assay
Reagents: • GST-tagged SOS1 (564_1049_GST_TEV_ECO) produced in-house • GST-TEV-SOS1 (564-1049) is purchased from Viva Biotech Ltd. • The expression construct of KRAS G12C (amino acids 1-169 of reference sequence P01116-2 (uniprot), with additional mutations: C51S, C80L, and C118S) containing a C-terminal avi-tag was obtained by gene synthesis (GeneArt, Thermo Fisher) in donor vector (pDONR-221) and transferred by recombinant cloning into pDEST17 vector bearing an N-terminal His6-tag. The protein was expressed in E. coli and the purified protein was biotinylated with the E. coli biotin ligase (BirA) before usage. • GDP (Sigma Cat No G7127) • AlphaLISA Glutathione Acceptor Beads (PerkinElmer, Cat No AL109) • AlphaScreen Streptavidin Donor Beads (PerkinElmer Cat No 6760002) • Assay plates: Proxiplate-384 PLUS, white (PerkinElmer, Cat No 6008289)
Assay Buffer: • 1×PBS • 0.1% BSA • 0.05% Tween 20
7.5 nM (final assay concentration) KRAS G12C, 10 μM (final assay concentration) GDP and 5 nM (final assay concentration) GST-SOS1 are mixed in assay buffer prior to use and kept at room temperature.
AlphaLISA Glutathione Acceptor Beads and AlphaScreen Streptavidin Donor Beads are mixed in assay buffer at a concentration of 10 μg/mL (final assay concentration) each prior to use and kept at room temperature.
Compounds are diluted to a final start concentration of 100 μM and are tested in duplicate. Assay-ready plates (ARPs) are generated using an Access Labcyte Workstation with a Labcyte Echo 550 or 555 accoustic dispenser. For compound a start concentration of 100 μM, 150 nL of compound solution is transferred per well in 11 concentrations in duplicate with serial 1:5 dilutions.
The assay is run using a fully automated robotic system in a darkened room below 100 Lux. 10 μL of KRAS::SOS1 GDP mix is added into columns 1-24 to the 150 nL of compound solution (final dilution in the assay 1:100, final DMSO concentration 1%).
After 30 minutes incubation time 5 μL of bead mix is added into columns 1-23. Plates are kept at room temperature in a darkened incubator. After further 60 minutes incubation, the signal is measured using a PerkinElmer Envision HTS Multilabel Reader using the AlphaScreen specifications from PerkinElmer. Each plate contains the following controls: • diluted DMSO+KRAS::SOS1 GDP mix+bead mix • diluted DMSO+KRAS::SOS1 GDP mix
IC50 values are calculated and analyzed using a 4 parametric logistic model.
Tables of example compounds disclosed herein contain IC50 values determined using the above assay.
(In Alpha technology, singlet oxygen from a donor bead excites a nearby acceptor bead.)

For series [2], the system named is ERK phosphorylation in NCI-H358_Cas9_SOS2. The experiment in a line: ERK phosphorylation assay 2 (AlphaLISA SureFire Ultra p-ERK1/2), SOS2 knock-out. It counts as cell-based. Conditions: Homo sapiens, NCI-H358; assay 2 (marked with *); read-out: IC50 H358 pERK. The text has this:
ERK Phosphorylation Assay
Materials Used for the Assay;

Series [3] can be described thus: Plasma protein binding (equilibrium dialysis), mouse plasma. It counts as in vitro ADME. Conditions: read-out: PPB mouse fu. The protocol: (§1) Plasma Protein Binding (PPB)
(§2) Binding of test compound to plasma was determined using equilibrium dialysis (ED) and quantitative mass spectrometry interfaced with liquid chromatography (LC-MS). In brief, ED was performed with dialysis devices consisting of two chambers separated by a semipermeable membrane with a molecular weight cut-off of 5-10 kg/mol. One chamber was filled with commercially sourced plasma (mouse and human plasma, respectively) or serum (10% FCS in PBS) containing 1-10 μmol/L test compound and the other chamber was filled with phosphate-buffer saline (PBS) with or without dextran. The dialysis chamber was incubated for 3-5 hours at 37° C. After incubation, protein was precipitated from aliquots of each chamber and the concentration of test compound in the supernatant of the plasma-containing compartment (cplasma) and of the buffer-containing compartment (Cbuffer) was determined by LC-MS. The fraction of unbound test compound (not bound to plasma) (fu) was calculated according to the following equation: […]
On the technique in general: In equilibrium dialysis only unbound substance equilibrates across the membrane.

A short description of series [4]: Plasma protein binding (equilibrium dialysis), human plasma. The settings on record: read-out: PPB human fu. Type of series: in vitro ADME. The protocol:
as §1, §2

Series [5] in a line: Plasma protein binding (equilibrium dialysis), serum 10% FCS in PBS. Conditions: bovine, 10% FCS in PBS (serum), read-out: PPB 10% FCS fu. It counts as in vitro ADME. The method, then:
as §1, §2

Series [6] has as its target Ba/F3 cells bearing a KRAS G12C mutation (Homo sapiens, UniProt P01116, G12C, cells depend on it). Briefly: Ba/F3 cell model proliferation assay (AlamarBlue, 72 h). Type of series: cell-based. The method, then:
Ba/F3 Cell Model Generation and Proliferation Assay
Plasmids containing KRASG12 mutants were obtained from GeneScript. To generate KRASG12-dependent Ba/F3 models, Ba/F3 cells were transduced with retroviruses containing vectors that harbor KRASG12 isoforms. Platinum-E cells (Cell Biolabs) were used for retrovirus packaging. Retrovirus was added to Ba/F3 cells. To ensure infection, 4 μg/mL polybrene was added and cells were spinfected. […] Cells with an infection efficiency of 10% to 20% were further cultivated and puromycin selection with 1 μg/mL was initiated. As a control, parental Ba/F3 cells were used to show selection status. Selection was considered successful when parental Ba/F3 cells cultures died. To evaluate the transforming potential of KRASG12 mutations, the growth medium was no longer supplemented with IL-3. Ba/F3 cells harboring the empty vector were used as a control. Approximately ten days before conducting the experiments, puromycin was left out.
All treatments were performed in technical duplicates. The assay is run using a fully automated robotic system. Treated cells were incubated for 72 h at 37° C. with 5% CO2. AlamarBlue™ (ThermoFisher), a viability stain, was added and fluorescence measured in the PerkinElmer Envision HTS Multilabel Reader.
A general note: Alamar Blue is a resazurin reagent that responds to reducing activity.

The mark [7] stands for this setting: Ba/F3 KRAS G12C cells, 72 h, 10% FCS, uncorrected, read-out: IC50 Ba/F3 KRASG12C.
The mark [8] stands for this setting: corrected by plasma protein binding in 10% FCS (fraction unbound), read-out: IC50 Ba/F3 KRASG12C (corrected).

T1 sequence (P01116 1-169 isoform P01116-2 G12C/C51S/C80L/C118S): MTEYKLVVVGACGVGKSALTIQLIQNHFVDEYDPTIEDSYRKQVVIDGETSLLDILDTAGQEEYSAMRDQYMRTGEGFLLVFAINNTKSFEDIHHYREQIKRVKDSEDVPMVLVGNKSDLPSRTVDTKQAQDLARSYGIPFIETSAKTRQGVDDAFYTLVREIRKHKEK
Sequence of Ba/F3 cells bearing a KRAS G12C mutation (P01116 whole entry G12C): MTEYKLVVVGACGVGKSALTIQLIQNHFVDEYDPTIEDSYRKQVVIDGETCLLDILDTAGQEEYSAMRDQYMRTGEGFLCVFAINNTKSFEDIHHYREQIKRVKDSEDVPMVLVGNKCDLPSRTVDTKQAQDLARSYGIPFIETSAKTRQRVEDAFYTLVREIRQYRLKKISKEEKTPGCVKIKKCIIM

`C=CC(=O)N1CCN(c2cc(-c3cc(C4(C)CCCc5sc(N)c(C#N)c54)on3)nc(O[C@@H](C)[C@@H]3CCCN3C)n2)CC1` (some centres unmarked) [Ib-2]: the IC50 is 2 nM in series [1] and 3.1 nM in series [2].
For the compound `C=CC(=O)N1[C@H](C)CN(c2cc(O[C@@H](C)[C@@H]3CCCN3C)nc(-c3cc([C@@]4(C)CCCc5sc(N)c(C#N)c54)on3)n2)C[C@@H]1C` [Ib-3], the values for the fraction unbound in series [3], in series [4] and in series [5] were 0.004, 0.018 and 0.078, respectively. For the same compound, the IC50 was 2 nM in series [1] and 4.1 nM in series [2]. In addition, the values for the GI50 in series [6] (setting [7]) and in series [6] (setting [8]) were 3.9 nM and 0.3 nM, respectively.
Consider `C=CC(=O)N1CCC(Oc2cc(O[C@@H](C)[C@@H]3CCCN3C)nc(-c3cc([C@@]4(C)CCCc5sc(N)c(C#N)c54)on3)n2)CC1` [Ib-7], for which the values for the fraction unbound in series [3], in series [4] and in series [5] were 0.007, 0.018 and 0.127, respectively. For the same compound, the IC50 in series [1] stood at 1.5 nM; in series [2], 0.6 nM. For the same compound, the GI50 was determined as 0.2 nM in series [6] (setting [7]) and 0.03 nM in series [6] (setting [8]).
Take `C=CC(=O)N1CCC(Oc2cc(N3CCN(C)C[C@@H]3C)nc(-c3cc(C4(C)CCCc5sc(N)c(C#N)c54)on3)n2)CC1` (some centres unmarked) [Ib-8]: the fraction unbound in series [3] was found to be 0.001; in series [4], 0.014; in series [5] it was 0.198. Besides, the IC50 in series [1] came to 13 nM; in series [2], 12.7 nM. Further, the GI50 in series [6] (setting [7]) was 13.5 nM; in series [6] (setting [8]), 2.67 nM.
`C=CC(=O)N1[C@@H](C)CN(c2nc(-c3cc([C@@]4(C)CCCc5sc(N)c(C#N)c54)on3)nc(O[C@@H](C)[C@@H]3CCCN3C)c2Cl)C[C@@H]1C` [Ib-9]: the fraction unbound in series [3] turned out to be 0.001; in series [4], 0.002; in series [5] it was 0.026. In addition, the figures for the 50% inhibitory concentration (IC50) in series [1] and in series [2] were 4 nM and 11.3 nM, respectively. Further, the GI50 in series [6] (setting [7]) came out at 2.9 nM; in series [6] (setting [8]) it was 0.08 nM.
Take `C=C(F)C(=O)N1[C@@H](C)CN(c2nc(-c3cc([C@@]4(C)CCCc5sc(N)c(C#N)c54)on3)nc(O[C@@H](C)[C@@H]3CCCN3C)c2Cl)C[C@@H]1C` [Ib-12]: the fraction unbound in series [3] was less than 0.0004; in series [4] it was less than 0.00052; in series [5], 0.016. The IC50 is 74 nM in series [1] and 830 nM in series [2]. Besides, the GI50 is 67.9 nM in series [6] (setting [7]) and 1.09 nM in series [6] (setting [8]).
Take `C=C(F)C(=O)N1CCC(Oc2cc(N3CCN(C)C[C@@H]3C)nc(-c3cc(C4(C)CCCc5sc(N)c(C#N)c54)on3)n2)CC1` (some centres unmarked) [Ib-13]: the fraction unbound was less than 0.0005 in series [3], 0.005 in series [4] and 0.114 in series [5]. The IC50 came out at 278 nM in series [1] and 1140 nM in series [2]. Further, the GI50 in series [6] (setting [7]) stood at 350 nM; in series [6] (setting [8]), 39.9 nM.
As to `COC/C=C/C(=O)N1CCN(c2cc(O[C@@H](C)[C@@H]3CCCN3C)nc(-c3cc(C4(C)CCCc5sc(N)c(C#N)c54)on3)n2)CC1` (some centres unmarked) [Ib-15], the fraction unbound was determined as 0.011 in series [3], 0.041 in series [4] and 0.185 in series [5]. Besides, the IC50 stood at 17 nM in series [1] and 32.7 nM in series [2]. Besides, the figures for the GI50 in series [6] (setting [7]) and in series [6] (setting [8]) were 72.4 nM and 13.4 nM, respectively.
Take `COC/C=C/C(=O)N1CCN(c2cc(O[C@@H](C)[C@@H]3CCCN3C)nc(-c3cc([C@@]4(C)CCCc5sc(N)c(C#N)c54)on3)n2)CC12CC2` [Ib-16]: the fraction unbound in series [3] was 0.002; in series [4] it was 0.02; in series [5] it was 0.044. The IC50 came to 42 nM in series [1] and 969 nM in series [2]. Further, the GI50 in series [6] (setting [7]) is 124 nM; in series [6] (setting [8]), 5.45 nM.
For the compound `C=CC(=O)N1CCC(Oc2cc(O[C@@H](C)[C@@H]3CCCN3C)nc(-c3cc([C@@]4(C)CCCc5sc(N)c(C#N)c54)no3)n2)CC1` [Ic-6], the fraction unbound is less than 0.001 in series [3] and 0.093 in series [5]. Also, the results for the IC50 in series [1] and in series [2] were 1.6 nM and 0.5 nM, respectively. Besides, the GI50 in series [6] (setting [7]) was determined as 0.7 nM; in series [6] (setting [8]), 0.07 nM.
In the case of `C=CC(=O)N1CCN(c2cc(-c3cc([C@@]4(C)CCCc5sc(N)c(C#N)c54)sn3)nc(O[C@@H](C)[C@@H]3CCCN3C)n2)CC1` [Id-3], the IC50 came to 1.7 nM in series [1] and 1.1 nM in series [2]. Moreover, the GI50 in series [6] (setting [7]) is less than 1.3 nM.
Consider `C=C(F)C(=O)N1CCN(c2cc(O[C@@H](C)[C@@H]3CCCN3C)nc(-c3cc(C4(C)CCCc5sc(N)c(C#N)c54)sn3)n2)CC1` (some centres unmarked) [Id-7], for which the IC50 in series [1] turned out to be 5 nM; in series [2] it was 20.5 nM. Further, in series [6] (setting [7]), the GI50 is 5.4 nM.
As for `C=C(F)C(=O)N1CCC(Oc2cc(O[C@@H](C)[C@@H]3CCCN3C)nc(-c3cc([C@@]4(C)CCCc5sc(N)c(C#N)c54)sn3)n2)CC1` [Id-8], the values for the fraction unbound in series [3], in series [4] and in series [5] were less than 0.0009, 0.004 and 0.352, respectively. Moreover, the IC50 in series [1] is 3 nM; in series [2], 16.1 nM. Also, the GI50 in series [6] (setting [7]) was 4.3 nM; in series [6] (setting [8]) it was 1.51 nM.
In the case of `COC/C=C/C(=O)N1CCN(c2cc(O[C@@H](C)[C@@H]3CCCN3C)nc(-c3cc([C@@]4(C)CCCc5sc(N)c(C#N)c54)sn3)n2)CC12CC2` [Id-9], the fraction unbound stood at 0.003 in series [3] and 0.336 in series [5]. Moreover, the IC50 in series [1] was 21 nM; in series [2], 58.9 nM. Further, the GI50 worked out at 44 nM in series [6] (setting [7]) and 14.8 nM in series [6] (setting [8]).
In the case of `C=C(F)C(=O)N1CCN(c2nc(OC[C@@H]3CCCN3C)nc3c2CCN(c2cccc4cccc(Cl)c24)C3)C[C@@H]1CC#N` [adagrasib, reference compound], the fraction unbound in series [3] amounted to 0.004; in series [4], 0.014; in series [5], 0.43.

For orientation: IC50 means the concentration needed to halve the response being measured.
